Literature values, collected in patent US9585967B2, “Nicotine-containing product” (priority 2008, dated 2017).

What was measured:
[1] = extensive first-pass metabolism
[2] = in vivo

CN1CCC[C@H]1c1cccnc1 [Nicotine, (S)-3-(1-Methyl-2-pyrrolidinyl)pyridine]
Oral bioavailability [1]: about 30% | half life in the body [2]: around two
